# Data: patent US8809618B2, “Transgenic mouse for screening and for studies of the pharmacodynamics and pharmacokinetics of ligands acting on the oestrogen receptor and its intracellular receptors, and method for the preparation thereof” (T.O.P. (Transgenic Operative Products) S.R.L., priority 2000, dated 2014)
# “Also recorded” adds a separate entry of the source.
# Tests used:
# [1] = system: oestrogen receptors; assay: Agonistic/antagonistic action of ER ligands: luciferase activity in tissues of line 2 ERE-luciferase transgenic mice; format: in vivo, mouse; conditions: line 2 mice; for effect on E2-dependent activation of luciferase expression in vivo: 250 μg/kg one hour before 50 μg/kg E2
# Method: To verify the expression of the transgene in the different tissues and its inducibility by oestrogens, 4 independent experiments were carried out on 8 female individuals of each line (4 heterozygotic and 4 homozygotic). For each experiment, two female individuals were ovariectomised. With the aim of reducing the oestrogens present in the bloodstream of the ovariectomised animals below the detection limit, there was a wait of two weeks before the induction experiment was carried out; the individuals were then subjected to subcutaneous (s.c.) injection of mineral oil with or without 50 μg/kg of dissolved 17-β oestradiol; 16 hours after the treatment, the individuals were sacrificed and the following tissues were dissected out of them: uterus, liver, spleen, lung, heart, kidney, hypothalamus and brain. The protein extracts were obtained by disintegration of the tissue with a homogenizer in the presence of a phosphate lysis buffer consisting of 0.1 M KH2PO4, 0.1 M K2HPO4, 1 mM DTT, 4 mM EGTA and 4 mM EDTA at pH 7.8. The suspension was frozen and thawed three times, and centrifuged for 30 minutes at 13,000 g; the supernatant was collected and equal quantities of protein, measured by the colorimetric method of Bradford, were subjected to enzymatic testing to reveal the activity of the enzyme luciferase. The method for detection of the activity of the reporter was carried out with a kit by the procedure recommended by the producer (Sigma), mixing ca. 20 μg of protein extract with the luciferin substrate in the presence of 0.5 mM ATP and 30 mM DTT and measuring the […] emitted using a luminometer (Lumat BL 9500, Berthold). With reference to FIGS. 5 to 7 of the attached drawings, individuals were subcutaneously injected (s.c.) with 50 μg/Kg 17β-estradiol (E2) or with vehicle (vegetable oil) and sacrificed at 24 hours. Luciferase enzymatic activity was evaluated and plotted in the graph. The arbitrary units are obtained considering the luciferase activity in the uterus of control individuals=100.
# By subcutaneous injection of the substance in the presence or in the absence of 17-β oestradiol it is in fact possible to compare the distribution and the intensity of expression of the luciferase gene in the various tissues and to compare it with the control or with the injection of 17-β oestradiol alone. The effect of in vivo administration of two known ER antagonists was investigated in line 2 of transgenic mice. […] Luciferase is expressed as fold induction obtained as the ratio between luciferase activity in ligands treated/control mice.
# [2] = system: ER reporter in primary bone marrow cells; assay: Luciferase expression in primary bone marrow cells from transgenic mice; format: cell-based, mouse; conditions: 16 hours; for luciferase accumulation in the presence of 1 nM E2: 100 nM ligand plus 1 nM E2; for luciferase accumulation, ligand alone: E2 0.01-10 nM, ICI and T 100 nM, Prog and Dex 10 nM
# Method: Two millions of bone marrow cells were suspended in phenol red-free RPMI 1640 with 10% stripped serum. […] Bars represent the average.+−.s.e.m. of 5 individual experiments each done in triplicate. *(P<0.01 as compared to the control), **(P<0.005 as compared to the control), ° (P<0.05 as compared to the T-treated); P were calculated with ANOVA followed by Scheffe test. […] As a control, we also tested progesterone and dexamethasone (10 nM).
# [3] = system: oestrogen receptor; assay: Time course of luciferase activity in bone and liver of transgenic mice after E2; format: in vivo, mouse; conditions: s.c. 50 μg/kg, sacrificed after 3, 6 or 16 hours
# [4] = system: oestrogen receptors; assay: Tissue distribution of E2-dependent luciferase induction in ovariectomised female transgenic mice; format: in vivo, mouse; conditions: 26 tissues, ovariectomised 2-month old females, s.c., 16 hours
# Method: (§1) To verify the expression of the transgene in the different tissues and its inducibility by oestrogens, 4 independent experiments were carried out on 8 female individuals of each line (4 heterozygotic and 4 homozygotic). For each experiment, two female individuals were ovariectomised. […] The suspension was frozen and thawed three times, and centrifuged for 30 minutes at 13,000 g; the supernatant was collected and equal quantities of protein, measured by the colorimetric method of Bradford, were subjected to enzymatic testing to reveal the activity of the enzyme luciferase. The method for detection of the activity of the reporter was carried out with a kit by the procedure recommended by the producer (Sigma), mixing ca. 20 μg of protein extract with the luciferin substrate in the presence of 0.5 mM ATP and 30 mM DTT and measuring the […] emitted using a luminometer (Lumat BL 9500, Berthold). […] Luciferase enzymatic activity was evaluated and plotted in the graph. […]
# The pharmacodynamics of any compound acting via intracellular receptors can also be correctly predicted by the transgenic model of the invention. As an illustrative example, […] luciferase activity was measured in 26 different tissues from 2-month old female mice which had been ovariectomised 2 weeks prior to the experiment. […]
# [5] = system: oestrogen receptors; assay: Xenooestrogen activity: luciferase activity in liver and brain of transgenic mice injected s.c. with DDT; format: in vivo, mouse; conditions: s.c. 5000 μg/ml
# Method: as §1
Compound,effect on E2-dependent activation of luciferase expression in vivo [1],luciferase accumulation in the presence of 1 nM E2 [2],"luciferase accumulation, ligand alone [2]",further results
4-hydroxytamoxifen,blockade,"higher luciferase accumulation, yet the level reached was still lower than with E2 alone",significant increase in luciferase levels even though lower than E2 at the same concentration,"agonist activity on luciferase expression in vivo ([1]; 250 μg/Kg alone, liver and brain): partial agonist activity; effect on E2-dependent activation of luciferase expression in vivo ([1]; listed as tamoxifen): inhibits the E2-dependent activation of luciferase expression"
CC(=O)[C@H]1CC[C@H]2[C@@H]3CCC4=CC(=O)CC[C@]4(C)[C@H]3CC[C@]12C [progesterone],–,–,did not have any effect,–
"C[C@]12CC[C@@H]3c4ccc(O)cc4CC[C@H]3[C@@H]1CC[C@@H]2O [E2, 17β-estradiol]",–,–,dose-dependent increase,time of maximal luciferase accumulation [3]: 6 h; luciferase enzyme content in tissues compared to controls [4]: induced an increase in the enzyme content compared to controls in oestrogen target organs
Clc1ccc(C(c2ccc(Cl)cc2)C(Cl)(Cl)Cl)cc1 [DDT],–,–,–,"persistence of luciferase induction [5]: 72 h; time of maximal induction of luciferase activity ([5]; sacrificed at 3-72 hours, vs vehicle): 24 h"
"C[C@]12CC[C@@H]3c4ccc(O)cc4C[C@@H](CCCCCCCCC[S+]([O-])CCCC(F)(F)C(F)(F)F)[C@H]3[C@@H]1CC[C@@H]2O (some centres unmarked) [ICI 182,780]",blockade; also recorded: inhibits the E2-dependent activation of luciferase expression,blocked,did not sort [sic] any effect,–
